{"source": "patent US12214009B2", "about": "“Compositions and methods for improving bruising and rejuvenating skin” (Alastin Skincare, Inc., priority 2019, dated 2025)", "key": {"[1]": {"assay": "Penetration ability log Kow", "format": "physicochemical", "description": "A water suspension of liposomes was prepared with 1.5% of hydrophilic molecule A or 300 ppm (0.03%) hydrophilic molecule B, and 27% Pro-Lipo™ Neo. […] Molecule B was a hexapeptide (hexapeptide-38) with a molecular weight of (870 g/mol) and a penetration ability log Kow of −1.13. A water solution with 1.5% A or 300 ppm B was used as a control (non-entrapped molecule)."}, "[2]": {"tested_on": "dermal and epidermal hyaluronic acid level", "settings": "ex vivo human skin model; cited from earlier work"}, "[3]": {"tested_on": "macrophages (RAW-Difluo mLC3 autophagy reporter cells) phagocytosing human red blood cells", "assay": "Macrophage phagocytosis of red blood cells (heme absorbance)", "format": "cell-based", "settings": "FIG. 6; 24 h; peptide alone; tripeptide-1 2.9 ug/mL, hexapeptide-11 100 ug/mL, hexapeptide-12 2.9 ug/mL", "description": "The assay was performed according to manufacturer's instructions (Cell BioLabs, Inc.). Macrophages used were RAW-Difluo mLC3 autophagy reporter cells. Human red blood cells (RBCs) were obtained from ZenBio (catalog number SER-10MLRBC). Briefly, 24 hours before the assay, macrophages were plated on 96-well plates. One plate was plated with 12,500 macrophages and a second plate with 25,000 macrophages. The day of the assay, human red blood cells (RBCs) were opsonized with human RBC antibody. As a negative control, sheep RBCs were opsonized with human RBC antibody. The media was then replaced with either peptide or no peptide. Blood was added to the plates at a 200:1 RBC to macrophage ratio. Phagocytosis was measured beginning at 2 hours after blood was added. The media and blood were removed from the wells of the plate. The plate was washed once with RBC lysis buffer to remove non-phagocytosed RBCs followed by two washes with PBS. Macrophage lysis buffer was then added to the plate and the lysed solution was transferred to a 96-well plate. The substrate solution to detect heme was added to the 96-well plate and absorbance was recorded at 1 minute, 5 minutes, 10, minutes, and 20 minutes. FIGS. 1B-1C show images of macrophage phagocytosis prior to red blood cell (RBC) washout (FIG. 1B) and after RBC washout (FIG. 1C). Arrows indicate macrophages with RBCs (hollow circles). […]"}}}
{"molecule": "Cn1c(=O)c2c(ncn2C)n(C)c1=O", "note": "[Molecule A, caffeine]", "values": [{"measurement": "penetration ability log Kow", "setting": "[1]", "result": "−0.07"}]}
{"molecule": "CCCCCCCC(=O)CCc1ccc(O)c(OC)c1", "note": "[Hydroxymethoxyphenyl decanone]", "values": [{"measurement": "stimulation of dermal hyaluronic acid level versus placebo", "setting": "[2]", "result": 259, "unit": "%"}, {"measurement": "stimulation of epidermal hyaluronic acid level versus placebo", "setting": "[2]", "result": 198, "unit": "%"}]}
{"molecule": "hexapeptide-11", "values": [{"measurement": "phagocytosis relative to NT control", "setting": "[3]", "result": "decrease or no change"}]}
{"molecule": "tripeptide-1", "values": [{"measurement": "phagocytosis relative to NT control", "setting": "[3]", "result": "decrease or no change"}]}
